Reference: the NIST ThermoML archive (doi:10.1021/acs.jced.8b00063)
“And” between values parts separate entries of the source, which are not always exact repeats. Equal entries are not always repeated. Numbers after ± are expanded uncertainties.

Assays:
[1] = refractive index (Na D-line) (dimensionless); xn = mol fraction of the nth substance listed; details: 293.15 K, 93.9 kPa, Liquid, Standard Abbe refractometry
[2] = Liquid, Ebulliometric method (Recirculating still)
[3] = refractive index (Na D-line) (dimensionless); details: Liquid, Standard Abbe refractometry

COc1ccccc1 [anisole] + CC(=O)OC(C)C
refractive index ([1]; x2 = 0): 1.5167 ± 0.006

CCOC(C)=O [ethyl acetate] + COc1ccccc1
refractive index ([1]; x1 = 1): 1.3724 ± 0.006

CCOC(C)=O [ethyl acetate]
vapor or sublimation pressure ([2]; 347.92 K): 93.9 ± 1 kPa | refractive index ([3]; 293.15 K, 93.9 kPa): 1.3724 ± 0.006 | refractive index ([3]; 298.15 K, 101.33 kPa): 1.37244 ± 0.006

COc1ccccc1 [anisole] + CCCOC(C)=O
refractive index ([1]; x2 = 0): 1.5168 ± 0.006 | refractive index ([1]; x2 = 0.1119): 1.5019 ± 0.006 | refractive index ([1]; x2 = 0.1399): 1.4979 ± 0.006 | refractive index ([1]; x2 = 0.1575): 1.4954 ± 0.006 | refractive index ([1]; x2 = 0.2187): 1.4875 ± 0.006 | refractive index ([1]; x2 = 0.2418): 1.4844 ± 0.006 | refractive index ([1]; x2 = 0.3387): 1.4706 ± 0.006 | refractive index ([1]; x2 = 0.354): 1.4687 ± 0.006 | refractive index ([1]; x2 = 0.4168): 1.4603 ± 0.006 | refractive index ([1]; x2 = 0.4759): 1.4525 ± 0.006 | refractive index ([1]; x2 = 0.533): 1.4451 ± 0.006 | refractive index ([1]; x2 = 0.5833): 1.4381 ± 0.006 | refractive index ([1]; x2 = 0.6096): 1.435 ± 0.006 | refractive index ([1]; x2 = 0.6683): 1.4268 ± 0.006 | refractive index ([1]; x2 = 0.7081): 1.4203 ± 0.006 | refractive index ([1]; x2 = 0.8047): 1.4093 ± 0.006 | refractive index ([1]; x2 = 0.8978): 1.3968 ± 0.006

CCCOC(C)=O [propyl ethanoate] + COc1ccccc1
refractive index ([1]; x1 = 1): 1.3841 ± 0.006

COc1ccccc1 [anisole]
vapor or sublimation pressure ([2]; 423.92 K): 93.9 ± 1 kPa | refractive index ([3]; 293.15 K, 93.9 kPa): 1.5168 ± 0.006 and 1.5167 ± 0.006 | refractive index ([3]; 298.15 K, 101.33 kPa): 1.51554 ± 0.006

COc1ccccc1 [anisole] + CCOC(C)=O
refractive index ([1]; x2 = 0): 1.5168 ± 0.006 | refractive index ([1]; x2 = 0.1318): 1.5002 ± 0.006 | refractive index ([1]; x2 = 0.1651): 1.4954 ± 0.006 | refractive index ([1]; x2 = 0.1818): 1.4935 ± 0.006 | refractive index ([1]; x2 = 0.2131): 1.4896 ± 0.006 | refractive index ([1]; x2 = 0.2301): 1.4867 ± 0.006 | refractive index ([1]; x2 = 0.3334): 1.4735 ± 0.006 | refractive index ([1]; x2 = 0.3472): 1.4712 ± 0.006 | refractive index ([1]; x2 = 0.4119): 1.4619 ± 0.006 | refractive index ([1]; x2 = 0.4709): 1.4548 ± 0.006 | refractive index ([1]; x2 = 0.4899): 1.4518 ± 0.006 | refractive index ([1]; x2 = 0.5481): 1.4426 ± 0.006 | refractive index ([1]; x2 = 0.6353): 1.431 ± 0.0061 | refractive index ([1]; x2 = 0.6467): 1.4243 ± 0.0061 | refractive index ([1]; x2 = 0.718): 1.4201 ± 0.006 | refractive index ([1]; x2 = 0.7382): 1.4142 ± 0.006 | refractive index ([1]; x2 = 0.8354): 1.3989 ± 0.006 | refractive index ([1]; x2 = 0.9091): 1.3874 ± 0.006

CC(=O)OC(C)C [1-methylethyl ethanoate]
vapor or sublimation pressure ([2]; 359.68 K): 93.9 ± 1 kPa | refractive index ([3]; 293.15 K, 93.9 kPa): 1.3774 ± 0.006 | refractive index ([3]; 298.15 K, 101.33 kPa): 1.37739 ± 0.006

CCCOC(C)=O [propyl ethanoate]
vapor or sublimation pressure ([2]; 372.17 K): 93.9 ± 1 kPa | refractive index ([3]; 293.15 K, 93.9 kPa): 1.3841 ± 0.006 | refractive index ([3]; 298.15 K, 101.33 kPa): 1.38406 ± 0.006

CC(=O)OC(C)C [1-methylethyl ethanoate] + COc1ccccc1
refractive index ([1]; x1 = 0.1058): 1.5013 ± 0.006 | refractive index ([1]; x1 = 0.1227): 1.499 ± 0.006 | refractive index ([1]; x1 = 0.1703): 1.4924 ± 0.006 | refractive index ([1]; x1 = 0.1794): 1.4915 ± 0.006 | refractive index ([1]; x1 = 0.2163): 1.4872 ± 0.006 | refractive index ([1]; x1 = 0.2803): 1.4768 ± 0.006 | refractive index ([1]; x1 = 0.3303): 1.4727 ± 0.006 | refractive index ([1]; x1 = 0.3684): 1.4673 ± 0.006 | refractive index ([1]; x1 = 0.4254): 1.4561 ± 0.006 | refractive index ([1]; x1 = 0.4928): 1.4481 ± 0.006 | refractive index ([1]; x1 = 0.5116): 1.4445 ± 0.006 | refractive index ([1]; x1 = 0.5769): 1.4361 ± 0.006 | refractive index ([1]; x1 = 0.6338): 1.4272 ± 0.006 | refractive index ([1]; x1 = 0.7247): 1.4154 ± 0.006 | refractive index ([1]; x1 = 0.8136): 1.4026 ± 0.006 | refractive index ([1]; x1 = 0.9006): 1.3903 ± 0.006 | refractive index ([1]; x1 = 1): 1.3774 ± 0.006

COc1ccccc1 [anisole] + COC(C)=O
refractive index ([1]; x2 = 0): 1.5168 ± 0.006 | refractive index ([1]; x2 = 0.1432): 1.4995 ± 0.006 | refractive index ([1]; x2 = 0.1704): 1.497 ± 0.006 | refractive index ([1]; x2 = 0.2986): 1.4855 ± 0.006 | refractive index ([1]; x2 = 0.3004): 1.4826 ± 0.006 | refractive index ([1]; x2 = 0.3323): 1.4777 ± 0.006 | refractive index ([1]; x2 = 0.41): 1.4692 ± 0.006 | refractive index ([1]; x2 = 0.4439): 1.4625 ± 0.006 | refractive index ([1]; x2 = 0.5057): 1.4542 ± 0.006 | refractive index ([1]; x2 = 0.5405): 1.451 ± 0.006 | refractive index ([1]; x2 = 0.6003): 1.4372 ± 0.006 | refractive index ([1]; x2 = 0.6354): 1.4327 ± 0.006 | refractive index ([1]; x2 = 0.6972): 1.4233 ± 0.006 | refractive index ([1]; x2 = 0.814): 1.3994 ± 0.006 | refractive index ([1]; x2 = 0.8577): 1.3909 ± 0.006 | refractive index ([1]; x2 = 0.9391): 1.3743 ± 0.006

COC(C)=O [methyl ethanoate] + COc1ccccc1
refractive index ([1]; x1 = 1): 1.3615 ± 0.006

COC(C)=O [methyl ethanoate]
vapor or sublimation pressure ([2]; 327.9 K): 93.9 ± 1 kPa | refractive index ([3]; 293.15 K, 93.9 kPa): 1.3615 ± 0.006 | refractive index ([3]; 298.15 K, 101.33 kPa): 1.36146 ± 0.006
